The target in one experiment is T1, h-SERT (Homo sapiens, UniProt P31645).
T1 construct: purchased Perkin-Elmer RBHSTM400UA; host or cells: HEK293 membranes
Put plainly: biochemical. Format: binding. To be noted: displacement of 2 nM [3H]-paroxetine, HEK293 membranes, Cheng-Prusoff. As for the experimental part: Competitive binding studies were conducted on homogenized membranes prepared from the human clonal cell line HEK293 for h-SERT. […] The inhibitory activity on AChE or butyrylcholinesterase (BuChE), which has also been regarded as a relevant cholinesterase target in AD [23], was determined using the spectrophotometric method, as described by Ellman, modified from Mella (Section 3.3).
The cellular background HEK293 containing 400 µL of h-SERT (Code RBHSTM400UA, Perkin-Elmer, Santiago, Chile) was diluted in 12 Eppendorf tubes, containing a storage buffer solution of Tris-HCl 50 mM (pH 7.4), EDTA 0.5 mM, MgCl2 10 mM, and 10% sucrose, obtaining a final volume between 260 and 340 µL, which was finally stored at −80 °C [27]. […] Non-specific binding was determined using […] fluoxetine. After 30 min at 27 °C, the incubation was stopped by rapid filtration on a Whatman GF/C filter preabsorbed in 0.5% polyethylenimine (PEI), washed with cold working buffer solution, 3 × 3 mL, filtered, and scintillation liquid was added.

Another experiment addresses BuChE (Homo sapiens, UniProt P06276). Kind of experiment: biochemical.
The next experiment concerns the target AChE (Homo sapiens, UniProt P22303). Kind of experiment: biochemical. To be noted: means ± SD of three determinations, 30 min preincubation at 25 °C, pH 7.5.
The next experiment deals with human AChE; h-AChE. To be noted: read-out: IC50 in human AChE (h-AChE); ref [14],[15],[16]; cited from earlier work.
Where [1] appears, read: means ± SD of three determinations, 30 min preincubation at 25 °C, pH 7.5, read-out: BuChE IC50.

For 16 compounds, Ki and IC50 results are on record in PMC12299174, “Design, Synthesis, and Evaluation of 1-Benzylpiperidine and 1-Benzoylpiperidine Derivatives as Dual-Target Inhibitors of Acetylcholinesterase and Serotonin Transporter for Alzheimer′s Disease” (Molecules, 2025).

Where a name gives a salt, the structure may show the parent alone. Read-outs that look alike come from different tables or passages of the source.

The Ki is the equilibrium dissociation constant of an inhibitor or competing ligand from its target. High values mean a looser hold on the target, low ones a stronger hold on the target. One may read the IC50 as the concentration needed to halve the response being measured.

T1 sequence (P31645 whole entry): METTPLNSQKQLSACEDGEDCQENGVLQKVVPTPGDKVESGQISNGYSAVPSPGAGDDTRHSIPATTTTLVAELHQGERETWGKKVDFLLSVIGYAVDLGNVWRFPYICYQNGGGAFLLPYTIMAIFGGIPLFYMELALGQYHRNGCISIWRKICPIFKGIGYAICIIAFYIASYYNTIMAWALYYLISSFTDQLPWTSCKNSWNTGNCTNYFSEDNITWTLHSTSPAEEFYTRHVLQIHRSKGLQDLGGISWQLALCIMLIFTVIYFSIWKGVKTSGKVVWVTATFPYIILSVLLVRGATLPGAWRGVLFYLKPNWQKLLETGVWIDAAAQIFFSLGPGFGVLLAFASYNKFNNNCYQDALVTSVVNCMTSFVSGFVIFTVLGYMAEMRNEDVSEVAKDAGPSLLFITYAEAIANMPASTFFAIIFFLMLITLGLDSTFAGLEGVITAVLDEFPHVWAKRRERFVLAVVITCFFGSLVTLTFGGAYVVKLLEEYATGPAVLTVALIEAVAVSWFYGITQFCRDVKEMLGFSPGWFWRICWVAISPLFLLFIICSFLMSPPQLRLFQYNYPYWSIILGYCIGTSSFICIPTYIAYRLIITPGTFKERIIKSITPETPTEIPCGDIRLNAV
BuChE, sequence (P06276 29-602): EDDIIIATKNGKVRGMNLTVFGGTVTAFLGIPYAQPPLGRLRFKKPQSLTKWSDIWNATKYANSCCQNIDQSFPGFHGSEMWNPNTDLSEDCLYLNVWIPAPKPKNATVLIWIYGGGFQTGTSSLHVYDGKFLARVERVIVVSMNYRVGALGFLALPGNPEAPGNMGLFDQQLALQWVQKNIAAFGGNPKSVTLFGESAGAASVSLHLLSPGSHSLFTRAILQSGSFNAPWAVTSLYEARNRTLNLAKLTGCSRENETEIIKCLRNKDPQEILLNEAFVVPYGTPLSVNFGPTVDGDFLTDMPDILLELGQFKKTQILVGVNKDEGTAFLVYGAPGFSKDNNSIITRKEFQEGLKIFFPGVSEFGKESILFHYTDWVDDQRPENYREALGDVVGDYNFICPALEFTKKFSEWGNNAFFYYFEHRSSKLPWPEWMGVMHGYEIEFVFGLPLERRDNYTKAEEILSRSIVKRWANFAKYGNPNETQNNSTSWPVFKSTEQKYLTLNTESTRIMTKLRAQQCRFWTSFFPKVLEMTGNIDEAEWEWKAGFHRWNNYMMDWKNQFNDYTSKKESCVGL
AChE, sequence (P22303 32-614): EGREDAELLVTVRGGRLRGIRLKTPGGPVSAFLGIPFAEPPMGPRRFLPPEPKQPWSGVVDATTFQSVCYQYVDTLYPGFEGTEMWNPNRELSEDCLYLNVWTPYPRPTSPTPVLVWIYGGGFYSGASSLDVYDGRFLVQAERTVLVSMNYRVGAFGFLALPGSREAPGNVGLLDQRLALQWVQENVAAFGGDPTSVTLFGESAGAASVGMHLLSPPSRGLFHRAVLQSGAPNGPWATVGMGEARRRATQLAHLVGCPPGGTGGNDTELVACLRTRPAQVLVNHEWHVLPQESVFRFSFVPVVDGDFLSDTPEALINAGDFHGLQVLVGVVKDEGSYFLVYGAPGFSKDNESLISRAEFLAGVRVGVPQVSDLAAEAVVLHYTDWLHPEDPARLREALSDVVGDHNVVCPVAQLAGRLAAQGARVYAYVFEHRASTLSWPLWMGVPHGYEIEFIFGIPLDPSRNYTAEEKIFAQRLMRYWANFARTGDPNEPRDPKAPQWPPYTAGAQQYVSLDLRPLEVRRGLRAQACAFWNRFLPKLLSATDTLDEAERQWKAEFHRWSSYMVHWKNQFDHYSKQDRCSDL

Consider `COc1cc2c(cc1OC)CN(CC1CCN(C(=O)c3cccc(F)c3)CC1)CC2` [Compound 13, (4-((6,7-Dimethoxy-3,4-dihydroisoquinolin-2(1H)-yl)methyl)piperidin-1-yl)(3-fluorophenyl)methanone], for which the Ki on h-SERT was 1.91 ± 0.77 µM. Also, the IC50 at BuChE (setting [1]) and at AChE (read-out: AChE IC50) was more than 500 µM each time.

Consider `COc1cc2c(cc1OC)CN(CC1CCN(C(=O)c3cccc(Cl)c3)CC1)CC2` [Compound 14, (3-Chlorophenyl)(4-((6,7-dimethoxy-3,4-dihydroisoquinolin-2(1H)-yl)methyl)piperidin-1-yl)methanone], for which, at h-SERT, the Ki worked out at 2.43 ± 0.24 µM. Also, the IC50 on BuChE (setting [1]) and on AChE (read-out: AChE IC50) was more than 500 µM throughout.

On to `COc1cc2c(cc1OC)CN(CC1CCN(C(=O)c3cccc(Br)c3)CC1)CC2` [Compound 15, (3-Bromophenyl)(4-((6,7-dimethoxy-3,4-dihydroisoquinolin-2(1H)-yl)methyl)piperidin-1-yl)methanone], for which the affinity on h-SERT corresponds to a Ki of 1.47 ± 0.73 µM. Further, the IC50 on BuChE (setting [1]) is more than 500 µM; on AChE (read-out: AChE IC50), 242 ± 24.4 µM.

The compound `COc1cc2c(cc1OC)CN(C(=O)C1CCN(Cc3ccc(Cl)cc3Cl)CC1)CC2` [Compound 11, (1-(2,4-Dichlorobenzyl)piperidin-4-yl)(6,7-dimethoxy-3,4-dihydroisoquinolin-2(1H)-yl)methanone] came in with a Ki at h-SERT of more than 100 µM. The IC50 on BuChE (setting [1]) and on AChE (read-out: AChE IC50) was more than 500 µM in each case.

At h-SERT, `COc1cc2c(cc1OC)CN(C(=O)C1CCN(Cc3cccc(Br)c3)CC1)CC2` [Compound 10, (1-(3-Bromobenzyl)piperidin-4-yl)(6,7-dimethoxy-3,4-dihydroisoquinolin-2(1H)-yl)methanone] returned a Ki of more than 100 µM. In addition, the IC50 on BuChE (setting [1]) turned out to be 426 ± 28.6 µM; at AChE (read-out: AChE IC50) it was 28.3 ± 0.87 µM.

Turning to `O=C(OCC1CCN(Cc2ccccc2)CC1)c1ccc2ccccc2c1` [Compound 22, (1-Benzylpiperidin-4-yl)methyl-2-naphthoate], at h-SERT, the Ki is 26.9 ± 2.57 µM. The concentration for half-maximal inhibition (IC50) at BuChE (setting [1]) was determined as 59.3 ± 1.42 µM; at AChE (read-out: AChE IC50), 61.7 ± 2.56 µM.

`COc1cc2c(cc1OC)CN(C(=O)C1CCN(Cc3ccccc3)CC1)CC2` [Compound 7, (1-Benzylpiperidin-4-yl)(6,7-dimethoxy-3,4-dihydroisoquinolin-2(1H)-yl)methanone]: on h-SERT, the Ki is more than 100 µM. The IC50 on BuChE (setting [1]) was more than 500 µM; at AChE (read-out: AChE IC50) it was 34.4 ± 0.51 µM.

For `O=C(Cc1ccc(Cl)cc1)OCC1CCN(Cc2ccccc2)CC1` [Compound 20, (1-Benzylpiperidin-4-yl)methyl-2-(4-chlorophenyl)acetate], the Ki at h-SERT was more than 100 µM. Besides, the IC50 on BuChE (setting [1]) was more than 500 µM; on AChE (read-out: AChE IC50), 259 ± 14.6 µM.

The compound `COc1cc2c(cc1OC)CN(C(=O)C1CCN(Cc3cccc(F)c3)CC1)CC2` [Compound 8, (6,7-Dimethoxy-3,4-dihydroisoquinolin-2(1H)-yl)(1-(3-fluorobenzyl)piperidin-4-yl)methanone] returned an inhibition constant Ki on h-SERT of more than 100 µM. Besides, the IC50 is more than 500 µM on BuChE (setting [1]) and 41.2 ± 3.17 µM at AChE (read-out: AChE IC50).

Regarding `O=C(OCC1CCN(Cc2ccccc2)CC1)C(c1ccccc1)c1ccccc1` [Compound 21, (1-Benzylpiperidin-4-yl)methyl-2,2-diphenylacetate], the Ki at h-SERT came out at 25.5 ± 1.01 µM. Further, the IC50 on BuChE (setting [1]) was 6.16 ± 0.29 µM; at AChE (read-out: AChE IC50), more than 500 µM.

Take `COc1ccc2c3c1O[C@H]1C[C@@H](O)C=C[C@@]31CCN(C)C2` [GAL, Galantamine hydrobromide]: the IC50 in the experiment on human AChE; h-AChE is 18.6 µM.

At h-SERT, `COc1cc2c(cc1OC)CN(C(=O)C1CCN(Cc3cccc(Cl)c3)CC1)CC2` [Compound 9, (1-(3-Chlorobenzyl)piperidin-4-yl)(6,7-dimethoxy-3,4-dihydroisoquinolin-2(1H)-yl)methanone] displayed a Ki of more than 100 µM. The IC50 at BuChE (setting [1]) worked out at 268 ± 13.8 µM; at AChE (read-out: AChE IC50), 34.5 ± 1.97 µM.

On to `O=C(Cc1ccccc1)OCC1CCN(Cc2ccccc2)CC1` [Compound 18, (1-Benzylpiperidin-4-yl)methyl-2-phenylacetate], for which, on h-SERT, the Ki was determined as 27.1 ± 3.4 µM. The results for the IC50 against BuChE and on AChE (AChE IC50 (µM)) were 256 ± 5.03 µM and 200 ± 8.61 µM, respectively.

In turn, `COc1cccc(C(=O)N2CCC(CN3CCc4cc(OC)c(OC)cc4C3)CC2)c1` [Compound 16, (4-((6,7-Dimethoxy-3,4-dihydroisoquinolin-2(1H)-yl)methyl)piperidin-1-yl)(3-methoxyphenyl)methanone] displayed a Ki at h-SERT of 1.59 ± 0.58 µM. Moreover, the IC50 on BuChE (setting [1]) is more than 500 µM; on AChE (read-out: AChE IC50), 439 ± 28 µM.

On h-SERT, `COc1cc2c(cc1OC)CN(CC1CCN(C(=O)c3ccccc3)CC1)CC2` [Compound 12, (4-((6,7-Dimethoxy-3,4-dihydroisoquinolin-2(1H)-yl)methyl)piperidin-1-yl)(phenyl)methanone] had a Ki of 2.62 ± 0.82 µM. For the same compound, the IC50 is more than 500 µM on BuChE (setting [1]) and 290 ± 10.9 µM on AChE (read-out: AChE IC50).

For the compound `O=C(Cc1ccc(F)cc1)OCC1CCN(Cc2ccccc2)CC1` [Compound 19, (1-Benzylpiperidin-4-yl)methyl-2-(4-fluorophenyl)acetate], the IC50 worked out at 26.8 ± 0.81 µM at BuChE (setting [1]) and 5.1 ± 0.24 µM at AChE (read-out: AChE IC50).
